# Columns and labels:
# [1] = target: T1, 5-hydroxytryptamine receptor 1A (Rattus norvegicus) (UniProt P19327); experiment: Displacement of [3H]8-OH-DPAT from rat hippocampus 5-HT1A receptor assessed as total radioligand binding at 1 uM incubated for 20 mins by microbeta plate reader based method
# T1 sequence (whole entry): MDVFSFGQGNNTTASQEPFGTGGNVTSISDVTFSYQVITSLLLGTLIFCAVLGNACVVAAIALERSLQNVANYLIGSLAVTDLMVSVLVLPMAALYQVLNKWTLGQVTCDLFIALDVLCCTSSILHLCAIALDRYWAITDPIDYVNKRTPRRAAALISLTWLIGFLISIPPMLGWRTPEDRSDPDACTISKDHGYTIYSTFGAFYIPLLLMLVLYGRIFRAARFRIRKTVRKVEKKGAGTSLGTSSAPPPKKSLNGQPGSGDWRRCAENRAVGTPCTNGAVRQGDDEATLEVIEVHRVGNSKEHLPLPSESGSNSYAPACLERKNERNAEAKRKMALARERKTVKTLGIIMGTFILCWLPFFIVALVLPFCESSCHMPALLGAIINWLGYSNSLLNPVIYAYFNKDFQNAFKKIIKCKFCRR
# [2] = target: 5-hydroxytryptamine receptor 7 (Homo sapiens, UniProt P34969); experiment: Displacement of [3H]LSD from human recombinant 5-HT7 receptor expressed in CHOK1 cells incubated for 60 mins by microbeta plate reader based method; assay type: cell-based, CHO-K1
# 5-hydroxytryptamine receptor 7, sequence (P34969 whole entry): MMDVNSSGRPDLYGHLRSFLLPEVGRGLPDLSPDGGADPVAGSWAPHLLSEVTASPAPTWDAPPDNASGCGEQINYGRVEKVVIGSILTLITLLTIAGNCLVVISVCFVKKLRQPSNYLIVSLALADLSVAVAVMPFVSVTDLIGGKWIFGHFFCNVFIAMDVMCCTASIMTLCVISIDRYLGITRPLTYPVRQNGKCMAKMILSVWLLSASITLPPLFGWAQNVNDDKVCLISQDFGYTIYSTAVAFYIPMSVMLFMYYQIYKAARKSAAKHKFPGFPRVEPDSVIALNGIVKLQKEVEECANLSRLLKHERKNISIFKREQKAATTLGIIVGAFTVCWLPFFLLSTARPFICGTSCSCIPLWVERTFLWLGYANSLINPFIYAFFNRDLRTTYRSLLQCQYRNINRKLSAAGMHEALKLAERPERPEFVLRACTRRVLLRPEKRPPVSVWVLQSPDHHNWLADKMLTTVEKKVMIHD
# [3] = target: T2, 5-hydroxytryptamine receptor 1A (Rattus norvegicus, UniProt P19327); experiment: Displacement of [3H]8-OH-DPAT from rat hippocampus 5-HT1A receptor incubated for 20 mins by microbeta plate reader based method
# T2 sequence (P19327 whole entry): T1 sequence (whole entry)
# D(2) dopamine receptor = D(2) dopamine receptor (Homo sapiens, UniProt P14416); experiment: Displacement of [3H]N-methylspiperone from human recombinant dopamine D2 receptor expressed in CHOK1 cells incubated for 60 mins by microbeta plate reader based method; assay type: cell-based, CHO-K1
# D(2) dopamine receptor, sequence (P14416 whole entry): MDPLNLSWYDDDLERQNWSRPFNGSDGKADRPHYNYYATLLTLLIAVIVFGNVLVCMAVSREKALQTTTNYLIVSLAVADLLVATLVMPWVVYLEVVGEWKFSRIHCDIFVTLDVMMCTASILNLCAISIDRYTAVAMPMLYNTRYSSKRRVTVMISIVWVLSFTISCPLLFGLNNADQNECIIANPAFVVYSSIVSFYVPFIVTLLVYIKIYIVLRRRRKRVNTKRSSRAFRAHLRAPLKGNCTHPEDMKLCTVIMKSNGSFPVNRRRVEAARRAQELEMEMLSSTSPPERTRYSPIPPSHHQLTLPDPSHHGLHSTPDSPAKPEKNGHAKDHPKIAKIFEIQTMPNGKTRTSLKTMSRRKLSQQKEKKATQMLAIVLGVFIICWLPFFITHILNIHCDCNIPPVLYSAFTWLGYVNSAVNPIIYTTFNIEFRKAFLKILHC
# [4] = target: D(3) dopamine receptor (Homo sapiens) (UniProt P35462); experiment: Displacement of [3H]N-methylspiperone from dopamine D3 receptor (unknown origin) assessed as total radioligand binding at 1 uM incubated for 60 mins by microbeta plate reader based method
# D(3) dopamine receptor (Homo sapiens), sequence (P35462 whole entry): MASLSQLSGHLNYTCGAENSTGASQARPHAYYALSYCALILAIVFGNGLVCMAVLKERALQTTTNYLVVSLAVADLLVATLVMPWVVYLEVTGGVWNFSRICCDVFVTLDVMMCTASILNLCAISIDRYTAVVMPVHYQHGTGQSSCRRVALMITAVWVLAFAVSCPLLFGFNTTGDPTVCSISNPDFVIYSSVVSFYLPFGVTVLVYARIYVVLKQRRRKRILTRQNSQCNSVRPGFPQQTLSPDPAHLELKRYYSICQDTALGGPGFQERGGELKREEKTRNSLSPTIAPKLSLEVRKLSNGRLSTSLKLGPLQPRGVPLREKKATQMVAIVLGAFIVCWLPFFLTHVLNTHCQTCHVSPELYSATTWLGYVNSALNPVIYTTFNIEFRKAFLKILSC
# [5] = Selectivity index, ratio of Ki for rat hippocampus 5-HT1A receptor to Ki for human recombinant 5-HT7 receptor
# [6] = target: T1, 5-hydroxytryptamine receptor 1A (Rattus norvegicus); experiment: Displacement of [3H]8-OH-DPAT from rat hippocampus 5-HT1A receptor assessed as total radioligand binding at 1.66 x 10^-7 M incubated for 20 mins by microbeta plate reader based method
# [7] = target: T3, 5-hydroxytryptamine receptor 6 (Homo sapiens, UniProt P50406); experiment: Displacement of [3H]LSD from human recombinant 5-HT6 receptor expressed in HEK293 cells assessed as total radioligand binding at 1.66 x 10^-7 M incubated for 60 mins by microbeta plate reader based method; assay type: cell-based
# T3 sequence (P50406 whole entry): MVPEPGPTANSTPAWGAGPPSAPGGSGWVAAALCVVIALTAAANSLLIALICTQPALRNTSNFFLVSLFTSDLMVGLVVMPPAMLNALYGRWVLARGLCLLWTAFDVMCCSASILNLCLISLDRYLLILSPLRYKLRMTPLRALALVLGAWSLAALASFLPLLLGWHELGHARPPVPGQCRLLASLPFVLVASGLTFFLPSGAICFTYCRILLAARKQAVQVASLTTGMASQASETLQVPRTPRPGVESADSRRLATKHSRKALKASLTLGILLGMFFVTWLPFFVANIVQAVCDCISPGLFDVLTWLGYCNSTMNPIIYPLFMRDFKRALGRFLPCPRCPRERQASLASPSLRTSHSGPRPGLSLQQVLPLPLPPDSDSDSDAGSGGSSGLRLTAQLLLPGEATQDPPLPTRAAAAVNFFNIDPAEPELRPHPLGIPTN
# [8] = target: D(3) dopamine receptor (Homo sapiens) (UniProt P35462); experiment: Displacement of [3H]N-methylspiperone from dopamine D3 receptor (unknown origin) assessed as total radioligand binding at 1.66 x 10^-7 M incubated for 60 mins by microbeta plate reader based method
# [9] = target: T3, 5-hydroxytryptamine receptor 6; experiment: Displacement of [3H]LSD from human recombinant 5-HT6 receptor expressed in HEK293 cells assessed as total radioligand binding at 1 uM incubated for 60 mins by microbeta plate reader based method; assay type: cell-based
# [10] = target: T3, 5-hydroxytryptamine receptor 6; experiment: Displacement of [3H]LSD from human recombinant 5-HT6 receptor expressed in HEK293 cells incubated for 60 mins by microbeta plate reader based method; assay type: cell-based
# Mus musculus [11] = experiment: Anxiolytic-like activity in Swiss mouse assessed as increase in number of punished crossings measured during 60 seconds period at 2.5 mg/kg, ip by four-plate test; assay type: functional; details: route intraperitoneal
# Mus musculus [12] = experiment: Anxiolytic-like activity in Swiss mouse assessed as increase in number of punished crossings measured during 60 seconds period at 5 mg/kg, ip by four-plate test; assay type: functional; details: route intraperitoneal
SMILES,Activity [1],Ki [2],Ki [3],Ki (D(2) dopamine receptor),Activity [4],Ratio Ki [5],Activity [6],Activity [7],Activity [8],Activity [9],Ki [10],Activity (Mus musculus [11]),Activity (Mus musculus [12])
Cn1c(=O)c2c(nc3n(CCCCCN4CCN(c5ccccc5O)CC4)ccn23)n(C)c1=O,0%,230 nM,7 nM,265 nM,3%,0.03,57%,76%,69%,67%,,,
Cn1c(=O)c2c(nc3n(CCCCN4CCN(c5ccc(Cl)c(Cl)c5)CC4)c(=O)ccn23)n(C)c1=O,84%,,,,98%,,97%,100%,99%,67%,,,
Cc1cccc(N2CCN(CCCCn3c(=O)ccn4c5c(=O)n(C)c(=O)n(C)c5nc34)CC2)c1C,42%,,,,73%,,85%,100%,100%,94%,,,
Cn1c(=O)c2c(nc3n(CCCCN4CCN(c5ccccc5O)CC4)c(=O)ccn23)n(C)c1=O,79%,,,,26%,,97%,100%,84%,100%,,,
Cn1c(=O)c2c(nc3n(CCCCCN4CCN(c5ccc(Cl)cc5)CC4)c(=O)ccn23)n(C)c1=O,,> 1000 nM,80 nM,215 nM,92%,,,,99%,,839 nM,,
Cc1cccc(N2CCN(CCCCn3ccn4c5c(=O)n(C)c(=O)n(C)c5nc34)CC2)c1C,9%,,,,13%,,48%,91%,47%,62%,,,
CN1C(=O)CN=C(c2ccccc2)c2cc(Cl)ccc21 [DIAZEPAM],,,,,,,,,,,,52%,57%
CC[C@@H](CO)NC(=O)[C@@H]1C=C2c3cccc4c3c(cn4C)C[C@H]2N(C)C1,11%,,,,,,18%,,,,,,
Cc1cn2c3c(=O)n(C)c(=O)n(C)c3nc2n1CCCCCN1CCN(c2ccccc2O)CC1,0%,124 nM,12 nM,468 nM,71%,0.1,52%,84%,85%,77%,,,
CSc1ccc2c(c1)C(N1CCN(C)CC1)Cc1ccccc1S2 (stereo not given),,,,,,,,3%,,1%,,,
Cn1c(=O)c2c(nc3n(CCCCN4CCN(c5ccccc5O)CC4)ccn23)n(C)c1=O,7%,1360 nM,2 nM,700 nM,69%,0.002,40%,99%,67%,90%,,,
Cc1cn2c3c(=O)n(C)c(=O)n(C)c3nc2n1CCCCCN1CCN(c2ccc(Cl)cc2)CC1,,691 nM,62 nM,106 nM,,0.09,,,,,837 nM,,
Cn1c(=O)c2c(nc3n(CCCCCN4CCN(c5ccc(Cl)c(Cl)c5)CC4)c(=O)ccn23)n(C)c1=O,52%,,,,61%,,86%,100%,96%,79%,,,
Cc1cccc(N2CCN(CCCCCn3c(=O)ccn4c5c(=O)n(C)c(=O)n(C)c5nc34)CC2)c1C,50%,,,,67%,,88%,85%,83%,59%,,,
Cn1c(=O)c2c(nc3n(CCCCN4CCN(c5ccc(Cl)c(Cl)c5)CC4)ccn23)n(C)c1=O,9%,,,,0%,,51%,91%,31%,67%,,,
Cn1c(=O)c2c(nc3n(CCCCN4CCN(c5ccc(Cl)cc5)CC4)c(=O)ccn23)n(C)c1=O,,61 nM,58 nM,68 nM,52%,,,,96%,,86 nM,,
Cc1cn2c3c(=O)n(C)c(=O)n(C)c3nc2n1CCCCN1CCN(c2ccc(Cl)cc2)CC1,,361 nM,38 nM,123 nM,,0.1,,,,,1460 nM,,
Cn1c(=O)c2c(nc3n(CCCCCN4CCN(c5ccccc5O)CC4)c(=O)ccn23)n(C)c1=O,,473 nM,2 nM,340 nM,46%,,,,67%,,> 1000 nM,,
Cn1c(=O)c2c(nc3n(CCCCCN4CCN(c5ccc(Cl)cc5)CC4)ccn23)n(C)c1=O,,3640 nM,73 nM,259 nM,,0.02,,,,,1590 nM,,
Cc1cn2c3c(=O)n(C)c(=O)n(C)c3nc2n1CCCCN1CCN(c2ccc(Cl)c(Cl)c2)CC1,13%,,,,64%,,74%,110%,90%,46%,,,
Cc1cc2c(s1)Nc1ccccc1N=C2N1CCN(C)CC1,,,,,10%,,,,24%,,,,
Cn1c(=O)c2c(nc3n(CCCCN4CCN(c5ccc(Cl)cc5)CC4)c(-c4ccccc4)cn23)n(C)c1=O,,37 nM,46 nM,23 nM,,1.2,,,,,447 nM,,
Cc1cn2c3c(=O)n(C)c(=O)n(C)c3nc2n1CCCCN1CCN(c2ccccc2O)CC1,8%,510 nM,2 nM,430 nM,67%,0.003,44%,90%,86%,90%,,,
Cn1c(=O)c2c(nc3n(CCCCCN4CCN(c5ccc(Cl)c(Cl)c5)CC4)ccn23)n(C)c1=O,3%,,,,16%,,78%,90%,67%,62%,,,

# Source: ChEMBL document CHEMBL3421538, “Structure-activity relationships and molecular studies of novel arylpiperazinylalkyl purine-2,4-diones and purine-2,4,8-triones with antidepressant and anxiolytic-like activity” (Eur J Med Chem, 2015)
